According to patent publication US9464064B2, “HCV helicase inhibitors and methods of use thereof” (University of Kansas, priority 2011, dated 2016):

Molecular target: T1, HCV NS3 helicase NS3h_1b(con1) (Hepatitis C virus genotype 1b, UniProt Q9WMX2)
T1 construct: truncated C-terminally His-tagged NS3 proteins lacking the N-terminal protease, called NS3h; His-tag (C); made in house
Test: MBHA screen of NCI mechanistic set library at 20 μM (percent inhibition, compound interference)
Format: biochemical
Settings: compounds at 20 μM; for Inh. (%) (Inhibition): calculated from Equation 1
Summary of the method: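 Molecular beacon-based DNA unwinding assay; compounds screened at 20 μM in triplicate, with DMSO-only negative and 500 nM dT20 positive controls. Fluorescence (ex 643/em 670 nm) was read before and 30 min after adding ATP to 1 mM. Percent inhibition came from the change relative to DMSO controls; interference from pre-ATP fluorescence versus DMSO controls.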

[1] = assay interference calculated with Equation 2 (fluorescence vs DMSO-only controls before ATP)
[2] = MBHA with DNA substrate, assay interference calculated with Equation 2

T1 sequence (Q9WMX2 1192-1657): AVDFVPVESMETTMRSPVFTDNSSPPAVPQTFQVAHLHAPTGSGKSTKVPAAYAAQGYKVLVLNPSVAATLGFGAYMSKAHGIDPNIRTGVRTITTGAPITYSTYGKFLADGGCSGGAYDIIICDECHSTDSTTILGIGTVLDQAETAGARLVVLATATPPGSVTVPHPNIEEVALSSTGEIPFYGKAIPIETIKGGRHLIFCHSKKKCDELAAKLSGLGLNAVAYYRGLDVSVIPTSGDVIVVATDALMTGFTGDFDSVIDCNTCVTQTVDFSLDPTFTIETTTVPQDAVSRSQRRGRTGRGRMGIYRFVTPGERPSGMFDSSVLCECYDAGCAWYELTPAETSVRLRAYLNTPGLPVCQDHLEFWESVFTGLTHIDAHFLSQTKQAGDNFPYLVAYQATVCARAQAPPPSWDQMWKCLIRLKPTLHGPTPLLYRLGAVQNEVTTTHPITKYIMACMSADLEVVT

Cc1cc(N(CCCl)CCCl)ccc1/C=N/NC(=O)Cc1cc(=O)oc2cc(O)ccc12 [Compound 79688]
Inh. (%) (Inhibition) (MBHA with a DNA substrate): 7.5% | Int.* (Ratio) (Interference) [1]: 0.97 Ratio

CN(C)c1ccc(/C=C2/C=Cc3ccccc32)cc1 [Compound 80087]
Inh. (%) (Inhibition) (MBHA with a DNA substrate): −7.0% | Int.* (Ratio) (Interference) [1]: 1.17 Ratio

O=C(CC(=O)C(F)(F)F)c1csc2ccccc12 [Compound 80396]
Int.* (Ratio) (Interference) [2]: 1.12 Ratio | Inh. (%) (Inhibition) (MBHA with DNA substrate): −10.6%

COc1cc(OC)c(OC)cc1/C=C/c1ccnc2ccccc12 [Compound 80756]
Int.* (Ratio) (Interference) [2]: 0.97 Ratio | Inh. (%) (Inhibition) (MBHA with DNA substrate): 1.2%

Cc1ccc(NC(=O)c2cccc([N+](=O)[O-])c2O)c([N+](=O)[O-])c1 [Compound 82025]
Inh. (%) (Inhibition) (MBHA with a DNA substrate): 10.4% | Int.* (Ratio) (Interference) [1]: 0.94 Ratio

CCOC(C)C(C=NNC(N)=S)=NNC(N)=S (stereo not shown) [Compound 82116]
Inh. (%) (Inhibition) (MBHA with a DNA substrate): −6.7% | Int.* (Ratio) (Interference) [1]: 1.10 Ratio

N[C@@H](CSC(c1ccccc1)(c1ccccc1)c1ccccc1)C(=O)O [Compound 83265]
Inh. (%) (Inhibition) (MBHA with a DNA substrate): −22.5% | Int.* (Ratio) (Interference) [1]: 0.98 Ratio

BrCCC[P+](c1ccccc1)(c1ccccc1)c1ccccc1.[Br-] [Compound 84074]
Inh. (%) (Inhibition) (MBHA with a DNA substrate): −31.4% | Int.* (Ratio) (Interference) [1]: 1.11 Ratio

C=C1C(=O)O[C@@H]2C[C@@H](C)[C@@H]3C=CC(=O)[C@@]3(C)[C@@H](O)[C@H]12 [Compound 85236]
Int.* (Ratio) (Interference) [2]: 1.20 Ratio | Inh. (%) (Inhibition) (MBHA with DNA substrate): 0.4%

O=[N+]([O-])c1cccc2c(N=Nc3ccc4ccccc4c3O)c(O)cc(S(=O)(=O)[O-])c12.[Na+] [Compound 85561]
Int.* (Ratio) (Interference) [2]: 0.90 Ratio | Inh. (%) (Inhibition) (MBHA with DNA substrate): 68.8%

Cc1ccc2c(ccc(C=Cc3ccc(O)c4ncccc34)[n+]2C)c1 [Compound 85700]
Int.* (Ratio) (Interference) [2]: 0.46 Ratio | Inh. (%) (Inhibition) (MBHA with DNA substrate): 29.7%

CN(N=O)C(=O)N[C@@H]1[C@@H](O)[C@H](O)[C@@H](CO)O[C@@H]1O [Compound 85998]
Int.* (Ratio) (Interference) [2]: 1.10 Ratio | Inh. (%) (Inhibition) (MBHA with DNA substrate): −19.0%

Cc1c2c(cc3c1[nH]c1ccccc13)C=NCC2 [Compound 86100]
Int.* (Ratio) (Interference) [2]: 1.00 Ratio | Inh. (%) (Inhibition) (MBHA with DNA substrate): 18.6%

Cc1c2ccncc2cc2c1[nH]c1ccccc12 [Compound 87206]
Int.* (Ratio) (Interference) [2]: 0.92 Ratio | Inh. (%) (Inhibition) (MBHA with DNA substrate): 55.6%

O=c1cccccc1O [Compound 89303]
Int.* (Ratio) (Interference) [2]: 0.93 Ratio | Inh. (%) (Inhibition) (MBHA with DNA substrate): 15.8%

C[C@H]1CCC/C=C/[C@@H]2C[C@H](O)C[C@H]2[C@H](O)/C=C/C(=O)O1 [Compound 89671]
Inh. (%) (Inhibition) (MBHA with a DNA substrate): −5.9% | Int.* (Ratio) (Interference) [1]: 1.04 Ratio

C=C(C)[C@@H]1CC[C@]2(C)CC[C@]3(C)[C@H](CC[C@@H]4[C@@]5(C)CC[C@H](O)C(C)(C)[C@@H]5CC[C@]43C)[C@@H]12 [Compound 90487]
Int.* (Ratio) (Interference) [2]: 1.18 Ratio | Inh. (%) (Inhibition) (MBHA with DNA substrate): −13.2%

CC(C)(C)C1CCC2(CC1)CCN(CCCN1CCOCC1)CC2 [Compound 90829]
Inh. (%) (Inhibition) (MBHA with a DNA substrate): −5.9% | Int.* (Ratio) (Interference) [1]: 1.16 Ratio

CC1(C)O[C@@H]2C[C@H]3[C@@H]4C[C@H](F)C5=CC(=O)C=C[C@]5(C)[C@@]4(F)[C@@H](O)C[C@]3(C)[C@]2(C(=O)CO)O1 [Compound 92339]
Int.* (Ratio) (Interference) [2]: 1.04 Ratio | Inh. (%) (Inhibition) (MBHA with DNA substrate): −1.6%

CCCCCCCCCc1c(Cl)nc(Cl)nc1Cl [Compound 92510]
Int.* (Ratio) (Interference) [2]: 1.00 Ratio | Inh. (%) (Inhibition) (MBHA with DNA substrate): −14.2%

COc1cc(O)c2c(c1)C(=O)c1cc3c(c(O)c1C2=O)C(OC1OC(C)C(O)C(O)C1OC)C(OC)C(C)(O)C3=O (stereo not shown) [Compound 93419]
Int.* (Ratio) (Interference) [2]: 0.91 Ratio | Inh. (%) (Inhibition) (MBHA with DNA substrate): 38.9%

CC1=CC(=C(c2ccc(N)cc2)c2ccc(N)cc2)C=CC1=N.Cl [Compound 93739]
Int.* (Ratio) (Interference) [2]: 0.81 Ratio | Inh. (%) (Inhibition) (MBHA with DNA substrate): −13.3%

CC(=O)NCCCCCCNC(C)=O [Compound 95580]
Inh. (%) (Inhibition) (MBHA with a DNA substrate): −3.8% | Int.* (Ratio) (Interference) [1]: 0.93 Ratio

NC(=S)NN=Cc1ncccc1O [Compound 95678]
Int.* (Ratio) (Interference) [2]: 0.98 Ratio | Inh. (%) (Inhibition) (MBHA with DNA substrate): −9.0%

COC1(O)C(=O)c2ccccc2OC1(OC)c1ccccc1 (stereo not shown) [Compound 95848]
Inh. (%) (Inhibition) (MBHA with a DNA substrate): 7.7% | Int.* (Ratio) (Interference) [1]: 0.90 Ratio

CCN1/C(=C\C(C)=C\c2sc3ccccc3[n+]2CC)Sc2ccccc21.[I-] [Compound 96932]
Int.* (Ratio) (Interference) [2]: 0.59 Ratio | Inh. (%) (Inhibition) (MBHA with DNA substrate): 38.8%

COc1ccc2cc1Oc1ccc(cc1)CC1c3cc(c(OC)cc3CCN1C)Oc1c(OC)c(OC)cc3c1C(C2)N(C)CC3 (stereo not shown) [Compound 97338]
Int.* (Ratio) (Interference) [2]: 0.96 Ratio | Inh. (%) (Inhibition) (MBHA with DNA substrate): −9.0%

CC1(c2cccc3ccccc23)OC(=O)c2ccccc21 (stereo not shown) [Compound 97703]
Int.* (Ratio) (Interference) [2]: 1.11 Ratio | Inh. (%) (Inhibition) (MBHA with DNA substrate): −9.3%

CC(=O)c1ccc(Oc2ccc(/C(C)=N/N=C(N)N)cc2)cc1.O=[N+]([O-])O [Compound 97911]
Inh. (%) (Inhibition) (MBHA with a DNA substrate): 11.5% | Int.* (Ratio) (Interference) [1]: 0.95 Ratio

[O-][Cl+3]([O-])([O-])[O-].c1ccc(-c2csc3c4ccccc4c4ccccc4[n+]23)cc1 [Compound 98904]
Int.* (Ratio) (Interference) [2]: 0.89 Ratio | Inh. (%) (Inhibition) (MBHA with DNA substrate): 41.2%

CN1CCC23c4ccccc4NC1C21CCN(C)C3Nc2ccccc21 [Compound 99016]
Int.* (Ratio) (Interference) [2]: 1.10 Ratio | Inh. (%) (Inhibition) (MBHA with DNA substrate): −8.6%

O=c1ccc2ccc(CBr)cc2o1 [Compound 99027]
Inh. (%) (Inhibition) (MBHA with a DNA substrate): 10.1% | Int.* (Ratio) (Interference) [1]: 0.93 Ratio

Cn1c(=O)[nH]c2nncnc2c1=O [Compound 99733]
Int.* (Ratio) (Interference) [2]: 1.02 Ratio | Inh. (%) (Inhibition) (MBHA with DNA substrate): −17.9%

Cl.Cl.Nc1ccc(OCCCc2c(-c3ccccc3)nc(N)[nH]c2=O)cc1 [Compound 100856]
Int.* (Ratio) (Interference) [2]: 0.98 Ratio | Inh. (%) (Inhibition) (MBHA with DNA substrate): −11.6%

Nc1ncnc2c(C3OC(CO)C(O)C3O)[nH]nc12 (stereo not shown) [Compound 102811]
Int.* (Ratio) (Interference) [2]: 1.08 Ratio | Inh. (%) (Inhibition) (MBHA with DNA substrate): 1.0%

COC(=O)[C@@H]1c2cc3c(c(O)c2[C@@H](OC)C[C@@]1(C)O)C(=O)c1c(O)cc2c(c1C3=O)O[C@@H]1O[C@@]2(C)[C@H](O)[C@@H](N(C)C)[C@@H]1O [Compound 102815]
Int.* (Ratio) (Interference) [2]: 0.76 Ratio | Inh. (%) (Inhibition) (MBHA with DNA substrate): −11.4%

CCC1CN2CCc3cc(OC)c(OC)cc3C2CC1CC1c2cc(OC)c(OC)cc2CCN1C(=O)C1CCCN1C(=O)OCc1ccccc1 (stereo not shown) [Compound 103248]
Int.* (Ratio) (Interference) [2]: 0.92 Ratio | Inh. (%) (Inhibition) (MBHA with DNA substrate): −11.6%

O=C1OC(c2ccccc2)=N/C1=C\c1ccc(N(CCCl)CCCl)cc1 [Compound 104117]
Int.* (Ratio) (Interference) [2]: 1.06 Ratio | Inh. (%) (Inhibition) (MBHA with DNA substrate): −14.5%

CC1(C)N=C(N)N=C(N)N1c1ccc(CCCCc2ccc(Cl)cc2Cl)cc1 [Compound 104129]
Inh. (%) (Inhibition) (MBHA with a DNA substrate): −42.7% | Int.* (Ratio) (Interference) [1]: 0.92 Ratio

COc1ccc(C(=O)/C(Br)=C\C(=O)O)cc1 [Compound 104801]
Int.* (Ratio) (Interference) [2]: 1.00 Ratio | Inh. (%) (Inhibition) (MBHA with DNA substrate): −9.5%

Nc1nc(Cl)nc2c1ncn2[C@H]1C[C@H](O)[C@@H](CO)O1 [Compound 105014]
Int.* (Ratio) (Interference) [2]: 0.89 Ratio | Inh. (%) (Inhibition) (MBHA with DNA substrate): 0.4%

NC1=C(Br)C(=O)c2ncccc2C1=O [Compound 105808]
Int.* (Ratio) (Interference) [2]: 1.14 Ratio | Inh. (%) (Inhibition) (MBHA with DNA substrate): 2.6%

Cc1ccc(N=Nc2c(O)ccc3ccccc23)cc1 [Compound 106296]
Inh. (%) (Inhibition) (MBHA with a DNA substrate): −5.2% | Int.* (Ratio) (Interference) [1]: 1.23 Ratio

CO[C@H]1Nc2c(ccc(C)c2O)C(=O)N2C=C(/C=C/C(N)=O)C[C@@H]12 [Compound 106408]
Int.* (Ratio) (Interference) [2]: 0.94 Ratio | Inh. (%) (Inhibition) (MBHA with DNA substrate): 22.7%

COC(=O)c1ccc(=O)c2nc3/c(=C/O)c(O)cc(=O)c3[nH]c12 [Compound 106995]
Int.* (Ratio) (Interference) [2]: 0.93 Ratio | Inh. (%) (Inhibition) (MBHA with DNA substrate): −1.1%

CC(C)CCCC(=O)CCCCCCC(=O)CCN(O)C(=O)C(N)CO.O=S(=O)(O)O (stereo not shown) [Compound 106997]
Int.* (Ratio) (Interference) [2]: 0.96 Ratio | Inh. (%) (Inhibition) (MBHA with DNA substrate): −2.2%

CC(/C=C/C(O)=C1/C(=O)CNC1=O)=C\[C@@H](C)[C@H]1O[C@]2(C)O[C@@H](C(=O)[C@@H]3O[C@@]32C)[C@@H]1C [Compound 107067]
Inh. (%) (Inhibition) (MBHA with a DNA substrate): −6.0% | Int.* (Ratio) (Interference) [1]: 0.90 Ratio
